One data set relates to MDCK cells. As to the kind of experiment: in vitro. The settings on record: dog, Cytotoxicy IC50.
In the next data set the test system is Influenza H1N1 virus. The experiment in a line: Viral cytopathic effect (CPE) assay. The settings on record: Influenza A virus, H1N1, MDCK, 72 h, read-out: CPE_EC50. The format is cell-based, Influenza A (H1N1). As for the experimental part:
Cells and viruses. Madin-Darby canine kidney cell (MDCK) was purchased from American type culture collection (ATCC) and was maintained in minimal essential medium (MEM) containing 10% fetal bovine serum and antibiotics. Influenza A/Weiss/43 (H1N1), A/PR/8/34 (H1N1), and A/Hongkong/8/68 (H3N2) were purchased from ATCC and propagated in 10-day-old embryonated chicken eggs at 37° C. Virus was harvested 48 h after inoculation as pooled allantoic fluid. After a brief centrifugation (3,000 rpm at room temperature for 20 min) and virus titer measurement by a hemagglutination test, virus was aliquoted and stored at a −80° C. freezer.
Viral cytopathic effect (CPE) assay: To measure anti-influenza activity of compounds, MDCK cells were seeded into 96-well plates at a density of 5,000 cells per well. Next day, compounds were serially half-log diluted with Gibco SFM containing trypsin. Compounds and 50 pfu of virus were added into corresponding wells to make m.o.i at 0.01 and a final trypsin concentration of 2.5 μg/ml. The testing plates also contained medium control, cell control, virus control, and compound toxicity control. After a 3-day treatment, cell viability was measured with a MTT (3-(4,5-dimethylthiazol-2-yl)-2,5-diphenyltetrazolium bromide) method. Briefly, 20 μl of MTT diluted in culture medium was added into each wells and incubated at 37° C. for 4 hours. Reduced MTT (formazan) was extracted with acidic isopropanol and absorbance at wavelengths of 570 nm and 630 nm (OD570 and OD630) was read on a microtiter plate reader. After subtraction of background OD values, dose response curves of half-log concentration vs. percent protection were generated, on which half maximal effective concentration (EC50) and half maximal toxic concentration (CC50) were calculated.

Molecules are shown by their SMILES.

`Cc1cc(Cl)cc(NCC2(C)CC(O)CC(C)(C)C2)c1` (stereo not drawn) [Example IIa-18, (cis-1,3)-3-[(3-Chloro-5-methyl-phenylamino)-methyl]-3,5,5-trimethyl-cyclohexanol] displayed a 50% inhibitory concentration (IC50) at 3 day in the data set with MDCK cells greater than 3.16 µM. In addition, in the data set on Influenza H1N1 virus, the EC50 was found to be 0.025 µM.
On the same counts, the results for `CC1(C)CC(O)CC(C)(CNc2cc(Cl)cc(Cl)c2)C1` (stereo not drawn) [Example IIa-19, (cis-1,3)-3-[(3,5-Dichloro-phenylamino)-methyl]-3,5,5-trimethyl-cyclohexanol] are 7.19 µM and 0.032 µM.
Turning to `CC1(C)CC(O)CC(C)(CNc2cc(Br)cc(C(F)(F)F)c2)C1` (stereo not drawn) [Example IIa-21, (cis-1,3)-3-[(3-Bromo-5-trifluoromethyl-phenylamino)-methyl]-3,5,5-trimethyl-cyclohexanol], the IC50 at 3 day with MDCK cells is greater than 3.16 µM. In addition, in the data set on Influenza H1N1 virus, the EC50 came to 0.058 µM.
The compound `CC1(C)CC(O)CC(C)(CNc2cc(F)cc(C#N)c2)C1` (stereo not drawn) [Example IIa-22, 3-Fluoro-5-[((cis-1,5)-5-hydroxy-1,3,3-trimethyl-cyclohexylmethyl)-amino]-benzonitrile] displayed an IC50 at 3 day in the data set on MDCK cells of 23.9 µM. The EC50 in the data set with Influenza H1N1 virus worked out at 0.05 µM.
The corresponding values for `CC1(C)CC(O)CC(C)(CNc2cc(C#N)cc(C(F)(F)F)c2)C1` (stereo not drawn) [Example IIa-24, 3-[((cis-1,5)-5-Hydroxy-1,3,3-trimethyl-cyclohexylmethyl)-amino]-5-trifluoromethyl-benzonitrile] are 13.2 µM and 0.04 µM.
With `CC1(C)CC(O)CC(C)(CNc2cc(C(F)(F)F)cc(C(F)(F)F)c2)C1` (stereo not drawn) [Example IIa-25, (cis-1,3)-3-[(3,5-Bis-trifluoromethyl-phenylamino)-methyl]-3,5,5-trimethyl-cyclohexanol], the IC50 at 3 day with MDCK cells came to 2.83 µM. In the data set on Influenza H1N1 virus, the EC50 came out at 0.095 µM.
On to `CC1(C)CC(O)CC(C)(CNc2ccc(Cl)c(Cl)c2)C1` (stereo not drawn) [Example IIa-27, (cis-1,3)-3-[(3,4-Dichloro-phenylamino)-methyl]-3,5,5-trimethyl-cyclohexanol], for which the IC50 at 3 day in the data set on MDCK cells is 2.49 µM. Further, in the data set with Influenza H1N1 virus, the EC50 turned out to be 0.068 µM.
Regarding `CN(CC1(C)CC(O)CC(C)(C)C1)c1cccc(Cl)c1` (stereo not drawn) [Example IIb-1, (cis-1,3)-3-{[(3-Chloro-phenyl)-methyl-amino]-methyl}-3,5,5-trimethyl-cyclohexanol], the IC50 at 3 day in the data set with MDCK cells was found to be 7.58 µM. Moreover, the EC50 with Influenza H1N1 virus was 0.6 µM.
Take `CC1(C)CCCC(C)(CNc2cc(F)cc(C(F)(F)F)c2)C1` (stereo not drawn) [Example IIc-1, (3-Fluoro-5-trifluoromethyl-phenyl)-(1,3,3-trimethyl-cyclohexylmethyl)-amine]: in the data set on MDCK cells, the IC50 at 3 day is 2.32 µM. Moreover, the EC50 in the data set with Influenza H1N1 virus was 0.237 µM.
In the data set with MDCK cells, `CC(=O)OC1CC(C)(C)CC(C)(CNc2ccccc2)C1` (stereo not drawn) [Example IId-1, Acetic acid (cis-1,5)-3,3,5-trimethyl-5-phenylaminomethyl-cyclohexyl ester] registered an IC50 at 3 day of 64.4 µM. In addition, the EC50 in the data set on Influenza H1N1 virus came out at 0.492 µM.
As for `CC1(C)CC(F)(F)CC(C)(CNc2cc(F)cc(C(F)(F)F)c2)C1` (stereo not drawn) [Example IIe-1, (3,3-Difluoro-1,5,5-trimethyl-cyclohexylmethyl)-(3-fluoro-5-trifluoromethyl-phenyl)-amine], the IC50 at 3 day with MDCK cells was greater than 3.16 µM. The EC50 in the data set on Influenza H1N1 virus amounted to 0.264 µM.
With `COC1CC(C)(C)CC(C)(CNc2cc(F)cc(C(F)(F)F)c2)C1` (stereo not drawn) [Example IIf-1, (3-Fluoro-5-trifluoromethyl-phenyl)-((cis-1,5)-5-methoxy-1,3,3-trimethyl-cyclohexylmethyl)-amine], the IC50 at 3 day in the data set with MDCK cells is greater than 3.16 µM. Further, in the data set on Influenza H1N1 virus, the EC50 stood at 0.129 µM.
As to `CC1(C)CC(C)(O)CC(C)(CNc2cc(F)cc(C(F)(F)F)c2)C1` (stereo not drawn) [Example IIg-1, (cis-1,3)-3-[(3-Fluoro-5-trifluoromethyl-phenylamino)-methyl]-1,3,5,5-tetramethyl-cyclohexanol], the IC50 at 3 day in the data set with MDCK cells was greater than 3.16 µM. In addition, the EC50 in the data set with Influenza H1N1 virus is 0.089 µM.
On to `CN(C)C1CC(C)(C)CC(C)(CNc2cc(F)cc(C(F)(F)F)c2)C1` (stereo not drawn) [Example IIh-1, ((cis-1,5)-5-Dimethylamino-1,3,3-trimethyl-cyclohexylmethyl)-(3-fluoro-5-trifluoromethyl-phenyl)-amine], for which the IC50 at 3 day in the data set with MDCK cells is 8.39 µM. Further, in the data set with Influenza H1N1 virus, the EC50 worked out at 1.7 µM.
`CC1(C)CC(O)CC(C)(C(=O)Nc2cccc(Cl)c2)C1` (stereo not drawn) [Example IVa-3, (cis-1,5)-5-Hydroxy-1,3,3-trimethyl-cyclohexanecarboxylic acid(3-chloro-phenyl)-amide] returned an IC50 at 3 day in the data set on MDCK cells of 82.1 µM. In the data set with Influenza H1N1 virus, the EC50 amounted to 0.46 µM.
Compound `CC1(C)CC(O)CC(C)(C(=O)Nc2cccc(C(F)(F)F)c2)C1` (stereo not drawn) [Example IVa-4, (cis-1,5)-5-Hydroxy-1,3,3-trimethyl-cyclohexanecarboxylic acid(3-trifluoromethyl-phenyl)-amide] registered an IC50 at 3 day in the data set on MDCK cells of 68.3 µM. For the same compound, in the data set on Influenza H1N1 virus, the EC50 stood at 0.34 µM.
Turning to `CC(C)c1cccc(NC(=O)C2(C)CC(O)CC(C)(C)C2)c1` (stereo not drawn) [Example IVa-5, (cis-1,5)-5-Hydroxy-1,3,3-trimethyl-cyclohexanecarboxylic acid(3-isopropyl-phenyl)-amide], the IC50 at 3 day in the data set on MDCK cells turned out to be 21.6 µM. For the same compound, the EC50 in the data set with Influenza H1N1 virus turned out to be 1.04 µM.
As for `CC1(C)CC(O)CC(C)(C(=O)Nc2cccc(OC(F)(F)F)c2)C1` (stereo not drawn) [Example IVa-8, (cis-1,5)-5-Hydroxy-1,3,3-trimethyl-cyclohexanecarboxylic acid(3-trifluoromethoxy-phenyl)-amide], the half-inhibitory concentration (IC50) at 3 day with MDCK cells is 60 µM. The EC50 in the data set on Influenza H1N1 virus came to 0.861 µM.
The corresponding values for `CC1(C)CC(O)CC(C)(C(=O)Nc2cccc(S(N)(=O)=O)c2)C1` (stereo not drawn) [Example IVa-10, (cis-1,5)-5-Hydroxy-1,3,3-trimethyl-cyclohexanecarboxylic acid(3-sulfamoyl-phenyl)-amide] are greater than 100 µM and 7.96 µM.
In turn, `CC1(C)CC(O)CC(C)(C(=O)Nc2cc(F)cc(F)c2)C1` (stereo not drawn) [Example IVa-11, (cis-1,5)-5-Hydroxy-1,3,3-trimethyl-cyclohexanecarboxylic acid(3,5-difluoro-phenyl)-amide] displayed an IC50 at 3 day in the data set with MDCK cells greater than 100 µM. In addition, the EC50 in the data set with Influenza H1N1 virus was determined as 0.32 µM.
In turn, `CC1(C)CC(O)CC(C)(C(=O)Nc2cc(F)cc(Cl)c2)C1` (stereo not drawn) [Example IVa-12, (cis-1,5)-5-Hydroxy-1,3,3-trimethyl-cyclohexanecarboxylic acid(3-chloro-5-fluoro-phenyl)amide] displayed a 50% inhibitory concentration (IC50) at 3 day in the data set on MDCK cells of 56.4 µM. In addition, the EC50 with Influenza H1N1 virus stood at 0.055 µM.
As for `CC1(C)CC(O)CC(C)(C(=O)Nc2cc(F)cc(C(F)(F)F)c2)C1` (stereo not drawn) [Example IVa-13, (cis-1,5)-5-Hydroxy-1,3,3-trimethyl-cyclohexanecarboxylic acid(3-fluoro-5-trifluoromethyl-phenyl)-amide], inhibition in the data set with MDCK cells was half-maximal at 52.8 µM (IC50 at 3 day). Moreover, in the data set with Influenza H1N1 virus, the EC50 is 0.054 µM.
In the data set with MDCK cells, `CC1(C)CC(O)CC(C)(C(=O)Nc2cc(Cl)cc(C(F)(F)F)c2)C1` (stereo not drawn) [Example IVa-14, (cis-1,5)-5-Hydroxy-1,3,3-trimethyl-cyclohexanecarboxylic acid(3-chloro-5-trifluoromethyl-phenyl)-amide] gave an IC50 at 3 day of 22.2 µM. Also, the EC50 with Influenza H1N1 virus was determined as 0.019 µM.
Take `CC1(C)CC(O)CC(C)(C(=O)Nc2cc(Br)cc(C(F)(F)F)c2)C1` (stereo not drawn) [Example IVa-15, (cis-1,5)-5-Hydroxy-1,3,3-trimethyl-cyclohexanecarboxylic acid(3-bromo-5-trifluoromethyl-phenyl)-amide]: inhibition in the data set with MDCK cells was half-maximal at 7.31 µM (IC50 at 3 day). Besides, the EC50 with Influenza H1N1 virus was determined as 0.055 µM.
